# Patent US20060052456A1, “Kynurenine 3-hydroxylase inhibitors for the treatment of diabetes by increasing the number of islets of langerhans cells” (MERCK PATENT GMBH, priority 2003, published 2006)
# Marks after values point to notes of the source that are not given here.
# Tests used:
# N0STZ rats = experiment: Antidiabetic activity in N0STZ rats (glycaemia after oral treatment); type: in vivo, rat; details: for percentage change in the glycaemia relative to D0, D4 (20 mg) / percentage change in the glycaemia relative to D0, D4 (200 mg): four days of treatment; for percentage change in the glycaemia relative to D0, D1 (20 mg) / percentage change in the glycaemia relative to D0, D1 (200 mg): one day of treatment
# Protocol: Study of the Antidiabetic Activity in N0STZ Rats
# The antidiabetic activity of the compounds of the formulae (I) and (II) orally was determined on an experimental model of non-insulin-dependent diabetes, induced in rats with steptozotocin.
# The model of non-insulin-dependent diabetes is obtained in the rats by means of a neonatal injection (on the day of birth) of steptozotocin.
# The diabetic rats used are eight weeks old. The animals are housed, from the day of birth to the day of the experiment, in an animal house at a regulated temperature of 21 to 22° C. and subjected to a fixed cycle of light (from 7 a.m. to 7 p.m.) and darkness (from 7 p.m. to 7 a.m.). Their food consisted of a maintenance diet, and water and food were given “ad libitum”, with the exception of fasting two hours before the tests, during which period the food is removed (post-absorptive state).
# The rats are treated orally for one (D1) or four (D4) days with the test product. Two hours after the final administration of the product and 30 minutes after anaesthetising the animals with pentobarbital sodium (Nembutal®), a 300 μL blood sample is taken from the end of the tail.
# The results presented below are expressed as a percentage change in the glycaemia on D1 and D4 (number of days of treatment) relative to D0 (before the treatment).
# hepatocytes = experiment: Hepatic glucose production in vitro in isolated hepatocytes (Table IV); type: cell-based, Wistar rats; details: for inhibition of hepatic glucose production in vitro (in words): isolated rat hepatocytes
# Protocol: The following two methods were used:
# (§1) 1) The hepatocytes are cultured for 16 to 18 hours in DMEM medium in the presence of AMP cyclase/dexamethasone at respective concentrations of 5×10^−5 M and 5×10^−7 M, with preincubation of the products at the test doses. After washing in pH 7.4 PBS buffer, the cells are incubated for three hours at 37° C. in a Krebs/AMPc/DEX buffer at the abovementioned concentrations. 0.1 μM insulin is used as reference substance. Two identical experiments are performed (Table III-1).
# (§2) After washing in pH 7.4 PBS buffer, the cells are incubated for two hours at 37° C. in a Krebs buffer free of glucose and of insulin, containing lactate/pyruvate (10/1 mM) in the presence or absence of the test compounds. 10 μM MICA (5-methoxyindole-2-carboxylic acid) is used as reference substance. Two identical experiments are performed (Table III-2).
# The protein assay is performed on the rest of the incubation medium via the Lowry method (BIO-RAD Dc protein assay, BIO-RAD 5000116).
# (§3) The results are expressed as nmoles of glucose produced per […] of proteins. The statistical test used is the t test.
# [1] = tested on: perfused isolated pancreases from N0 STZ diabetic rats; experiment: Secretion of insulin and glucagon in perfused isolated pancreases from N0 STZ diabetic rats; type: cell-based; details: perfused diabetic rat pancreas; absence of glucose, then 16.5 mM glucose; glucose-dependent
# Description: The results are expressed as the mean ±SEM (standard error of mean) of several experiments. The statistical test used is the Scheffé test.
# primary hepatocytes [2] = experiment: Hepatic glucose production stimulated by AMPc/DEX in primary hepatocytes (Table III-1); type: cell-based, Wistar rats
# Protocol: (§4) The hepatocytes are isolated from the liver of Wistar rats fasted for 24 hours, according to the method described in Methods Cell Biol., 13 (1975), 29-83.
# as §1
# (§5) Quantification of the glucose is performed via a calorimetric method using glucose oxidase (IL test™ Glucose, Monarch 181633-80). The protein assay is performed on the rest of the incubation medium via the Lowry method (BIO-RAD Dc protein assay, BIO-RAD 5000116).
# as §3
# primary hepatocytes [3] = experiment: Hepatic glucose production, basal Lact/Pyr 2 hours, in primary hepatocytes (Table III-2); type: cell-based, Wistar rats
# Protocol: as §4
# 2) The hepatocytes are cultured for 16 to 18 hours in RPMI 1640 medium free of glucose but supplemented with 1% glutamine, 100 U/mL penicillin, […] streptomycin and 7×10^−5 M hydrocortisone hemisuccinate.
# as §2, §5, §3
# [4] = Rattus norvegicus, Hepatocyte, 10 μM
# [5] = Rattus norvegicus, Hepatocyte, 100 μM
smiles,measurement,setting,value
"O=C(CC(Sc1ccc(F)cc1)C(=O)O)c1ccccc1 (stereo not shown) [Ih-3, 2-(4′-fluorophenylthio)-4-phenyl-4-oxobutanoic acid]","percentage change in the glycaemia relative to D0, D4 (20 mg)",N0STZ rats,−19%
same,"percentage change in the glycaemia relative to D0, D4 (200 mg)",N0STZ rats,−12%
same,"percentage change in the glycaemia relative to D0, D1 (20 mg)",N0STZ rats,−3%
same,"percentage change in the glycaemia relative to D0, D1 (200 mg)",N0STZ rats,7%
"COc1ccc(C(=O)CC(Sc2ccc(F)cc2)C(=O)O)cc1 (stereo not shown) [Ih-18, 2-(4′-fluorophenylthio)-4-(4′-methoxyphenyl)-4-oxobutanoic acid]",melting point,,108 to 110 °C
"O=C(C[C@@H](Cc1ccccc1)C(=O)O)c1ccc(Cl)c(Cl)c1 (racemic) [Compound j, (R,S)-2-benzyl-4-(3′,4′-dichlorophenyl)-4-oxobutanoic acid]",inhibition of hepatic glucose production,hepatocytes; 1 μM,30** %
same,inhibition of hepatic glucose production,hepatocytes; 10 μM,51** %
same,inhibition of hepatic glucose production,hepatocytes; 100 μM,65** %
same,inhibition of hepatic glucose production in vitro (in words),hepatocytes,powerful inhibitors of hepatic glucose production in vitro
Nc1ccccc1C(=O)CC(N)C(=O)O (stereo not shown) [Kynurenine],inhibition at 1 µM,"hepatocytes; Rattus norvegicus, Hepatocyte, 1 μM",2%
same,inhibition at 10 µM,hepatocytes; [4],4%
same,inhibition at 100 µM,hepatocytes; [5],25%
same,inhibition at 1000 µM,"hepatocytes; Rattus norvegicus, Hepatocyte, 1000 μM",78%
same,inhibition of hepatic glucose production in vitro (in words),hepatocytes,powerful inhibitors of hepatic glucose production in vitro
same,glucagon secretion (in words),[1],stimulated
same,insulin secretion (in words),[1],stimulated
"Cc1ccc(SC(CC(=O)c2ccccc2)C(=O)O)cc1 (stereo not shown) [Ih-5, 2-(4′-methylphenylthio)-4-phenyl-4-oxobutanoic acid]",melting point,,132 to 134 °C
"COc1ccc2[nH]c(C(=O)O)cc2c1 [MICA, 5-methoxyindole-2-carboxylic acid]",inhibition at 10 µM,hepatocytes; [4],67%
"O=C(CC(Sc1ccccc1)C(=O)O)c1ccc(Cl)cc1 (stereo not shown) [Ih-25, 2-phenylthio-4-(4′-chlorophenyl)-4-oxobutanoic acid]",melting point,,166 to 169 °C
"O=C(CC(Sc1ccc(F)cc1)C(=O)O)c1ccc(Cl)cc1 (stereo not shown) [Ih-26, 2-(4′-fluorophenylthio)-4-(4′-chlorophenyl)-4-oxobutanoic acid]",melting point,,140 to 141 °C
"COc1ccc(C(=O)CC(SCc2ccccc2)C(=O)O)cc1 (stereo not shown) [Ih-24, 2-benzylthio-4-(4′-methoxyphenyl)-4-oxobutanoic acid]",melting point,,105 to 109 °C
"COc1ccc(SC(CC(=O)c2ccc(OC)cc2)C(=O)O)cc1 (stereo not shown) [Ih-21, 2-(4′-methoxyphenylthio)-4-(4′-methoxyphenyl)-4-oxobutanoic acid]",melting point,,137 to 140 °C
"COc1ccc(C(=O)CC(Sc2ccc(C)cc2)C(=O)O)cc1 (stereo not shown) [Ih-20, 2-(4′-methylphenylthio)-4-(4′-methoxyphenyl)-4-oxobutanoic acid]",melting point,,137 to 141 °C
"COc1ccc(C(=O)CC(SC2CCCCC2)C(=O)O)cc1 (stereo not shown) [Ih-23, 2-cyclohexylthio-4-(4′-methoxyphenyl)-4-oxobutanoic acid]",melting point,,120 to 122 °C
"O=C(CC(Sc1ccc(Cl)cc1)C(=O)O)c1ccccc1 (stereo not shown) [Ih-4, 2-(4′-chlorophenylthio)-4-phenyl-4-oxobutanoic acid]",melting point,,140 to 142 °C
"O=C(CC(Sc1ccccc1)C(=O)O)c1ccccc1 (stereo not shown) [Ih-2, 2-phenylthio-4-phenyl-4-oxobutanoic acid]",melting point,,132 to 135 °C
"COc1ccc(C(=O)CC(Sc2ccc(Cl)cc2)C(=O)O)cc1 (stereo not shown) [Ih-19, 2-(4′-chlorophenylthio)-4-(4′-methoxyphenyl)-4-oxobutanoic acid]",melting point,,120 to 121 °C
"O=C(CC(SC1CCCCC1)C(=O)O)c1ccccc1 (stereo not shown) [Ih-7, 2-cyclohexylthio-4-phenyl-4-oxobutanoic acid]",melting point,,117 °C
O=C(O)c1cc(=O)c2ccccc2[nH]1 [Kynurenic acid],glucagon secretion (in words),[1],stimulates
same,insulin secretion (in words),[1],stimulates the secretion of insulin
"COc1ccc(SC(CC(=O)c2ccc(Cl)cc2)C(=O)O)cc1 (stereo not shown) [Ih-29, 2-(4′-methoxyphenylthio)-4-(4′-chlorophenyl)-4-oxobutanoic acid]",melting point,,117 to 119 °C
"O=C(CC(SCc1ccccc1)C(=O)O)c1ccccc1 (stereo not shown) [Ih-8, 2-benzylthio-4-phenyl-4-oxobutanoic acid]",melting point,,143 to 146 °C
"COc1ccc(SC(CC(=O)c2ccccc2)C(=O)O)cc1 (stereo not shown) [Ih-6, 2-(4′-methoxyphenylthio)-4-phenyl-4-oxobutanoic acid]",melting point,,116 to 118 °C
N[C@@H](Cc1c[nH]c2ccccc12)C(=O)O [Tryptophan],inhibition at 10 µM,hepatocytes; [4],12%
same,inhibition at 100 µM,hepatocytes; [5],81%
same,inhibition of hepatic glucose production in vitro (in words),hepatocytes,powerful inhibitors of hepatic glucose production in vitro
same,glucagon secretion (in words),[1],stimulates glucagon secretion in a glucose-dependent manner
same,insulin secretion (in words),[1],stimulates insulin secretion in a glucose-dependent manner
"O=C(CC(C(=O)O)c1ccc(Cl)cc1)c1ccc(Cl)cc1 (stereo not shown) [Ih-27, 2-(4′-chlorophenyl)-4-(4′-chlorophenyl)-4-oxobutanoic acid]",melting point,,154 to 156 °C
"COc1ccc(C(=O)CC(Sc2ccccc2)C(=O)O)cc1 (stereo not shown) [Ih-17, 2-phenylthio-4-(4′-methoxyphenyl)-4-oxobutanoic acid]",melting point,,121 to 125 °C
"Cc1ccc(SC(CC(=O)c2ccc(Cl)cc2)C(=O)O)cc1 (stereo not shown) [Ih-28, 2-(4′-methylphenylthio)-4-(4′-chlorophenyl)-4-oxobutanoic acid]",melting point,,151 to 153 °C
"O=C(CC(Sc1ccc2ccccc2c1)C(=O)O)c1ccccc1 (stereo not shown) [Ih-1, 2-(2′-naphthylthio)-4-phenyl-4-oxobutanoic acid]",HGP % of control,primary hepatocytes [2]; 1 μM,103 % of control
same,HGP % of control,primary hepatocytes [2]; 10 μM,83 % of control
same,HGP % of control,primary hepatocytes [2]; 100 μM,15 % of control
same,inhibition of hepatic glucose production in vitro (in words),hepatocytes,powerful inhibitors of hepatic glucose production in vitro
same,"percentage change in the glycaemia relative to D0, D4 (20 mg)",N0STZ rats,−12%
same,"percentage change in the glycaemia relative to D0, D4 (200 mg)",N0STZ rats,−21%
same,"percentage change in the glycaemia relative to D0, D1 (20 mg)",N0STZ rats,7%
same,"percentage change in the glycaemia relative to D0, D1 (200 mg)",N0STZ rats,10%
same,HGP % of control,primary hepatocytes [3]; 1 μM,110 % of control
same,HGP % of control,primary hepatocytes [3]; 10 μM,127 % of control
same,HGP % of control,primary hepatocytes [3]; 100 μM,75 % of control
